Experimental data taken from ChEMBL document CHEMBL1629559, “Real-time PCR detection of gyrA and parC mutations in Streptococcus pneumoniae” (2008).
Converted amounts (≈) assume the structure as drawn.

What was measured:
[1] = tested on: Streptococcus pneumoniae; assay: Antibacterial activity against Streptococcus pneumoniae U2A1051 harboring gyrA Ser81Tyr mutant gene by agar disk diffusion method; format: functional
[2] = tested on: Streptococcus pneumoniae; assay: Antibacterial activity against Streptococcus pneumoniae R6 Tr10 harboring gyrA Ser81Tyr parC Ser79Tyr mutant gene by agar disk diffusion method; format: functional
[3] = tested on: Streptococcus pneumoniae; assay: Antibacterial activity against Streptococcus pneumoniae CIP104485 by agar disk diffusion method; format: functional, CIP1044
[4] = tested on: Streptococcus pneumoniae; assay: Antibacterial activity against Streptococcus pneumoniae R6 Tr1 harboring parC Ser79Tyr mutant gene by agar disk diffusion method; format: functional
[5] = tested on: Streptococcus pneumoniae; assay: Antibacterial activity against Streptococcus pneumoniae H548 clinical isolate harboring gyrA Ser81Phe mutant gene by agar disk diffusion method; format: functional
[6] = tested on: Streptococcus pneumoniae; assay: Antibacterial activity against Streptococcus pneumoniae U2A1050 harboring gyrA Ser81Phe mutant gene by agar disk diffusion method; format: functional
[7] = tested on: Streptococcus pneumoniae; assay: Antibacterial activity against Streptococcus pneumoniae R6 by agar disk diffusion method; format: functional
[8] = tested on: Streptococcus pneumoniae; assay: Antibacterial activity against Streptococcus pneumoniae U2A1053 harboring parC Ser79Phe mutant gene by agar disk diffusion method; format: functional
[9] = tested on: Streptococcus pneumoniae; assay: Antibacterial activity against Streptococcus pneumoniae U2A1411 harboring parC Asp83Gly mutant gene by agar disk diffusion method; format: functional
[10] = tested on: Streptococcus pneumoniae; assay: Antibacterial activity against Streptococcus pneumoniae U2A1266 harboring gyrA Ser81Cys mutant gene by agar disk diffusion method; format: functional
[11] = tested on: Streptococcus pneumoniae; assay: Antibacterial activity against Streptococcus pneumoniae U2A1413 harboring parC Ser79Tyr mutant gene by agar disk diffusion method; format: functional
[12] = tested on: Streptococcus pneumoniae; assay: Antibacterial activity against Streptococcus pneumoniae U2A1056 harboring gyrA Ser81Tyr parC Asp83His mutant gene by agar disk diffusion method; format: functional
[13] = tested on: Streptococcus pneumoniae; assay: Antibacterial activity against Streptococcus pneumoniae U2A1693 harboring parC Asp83Asn mutant gene by agar disk diffusion method; format: functional
[14] = tested on: Streptococcus pneumoniae; assay: Antibacterial activity against Streptococcus pneumoniae U2A1414 harboring gyrA Glu85Lys parC Ser79Phe mutant gene by agar disk diffusion method; format: functional
[15] = tested on: Streptococcus pneumoniae; assay: Antibacterial activity against Streptococcus pneumoniae U2A1060 harboring gyrA Ser81Phe parC Asp83His mutant gene by agar disk diffusion method; format: functional
[16] = tested on: Streptococcus pneumoniae; assay: Antibacterial activity against Streptococcus pneumoniae U2A1686 harboring gyrA Glu85Lys mutant gene by agar disk diffusion method; format: functional
[17] = tested on: Streptococcus pneumoniae; assay: Antibacterial activity against Streptococcus pneumoniae U2A1681 harboring parC Ser79Tyr Asp83Ala mutant gene by agar disk diffusion method; format: functional
[18] = tested on: Streptococcus pneumoniae; assay: Antibacterial activity against Streptococcus pneumoniae R6 Tr6 harboring gyrA Ser81Phe mutant gene by agar disk diffusion method; format: functional
[19] = tested on: Streptococcus pneumoniae; assay: Antibacterial activity against Streptococcus pneumoniae CP1000 by agar disk diffusion method; format: functional
[20] = tested on: Streptococcus pneumoniae; assay: Antibacterial activity against Streptococcus pneumoniae CIP104485 by agar dilution method; format: functional; details: CIP1044
[21] = tested on: Streptococcus pneumoniae; assay: Antibacterial activity against Streptococcus pneumoniae R6 Tr6 harboring gyrA Ser81Phe mutant gene by agar dilution method; format: functional
[22] = tested on: Streptococcus pneumoniae; assay: Antibacterial activity against Streptococcus pneumoniae U2A1051 harboring gyrA Ser81Tyr mutant gene by agar dilution method; format: functional
[23] = tested on: Streptococcus pneumoniae; assay: Antibacterial activity against Streptococcus pneumoniae CP1000 by agar dilution method; format: functional
[24] = tested on: Streptococcus pneumoniae; assay: Antibacterial activity against Streptococcus pneumoniae U2A1060 harboring gyrA Ser81Phe parC Asp83His mutant gene by agar dilution method; format: functional
[25] = tested on: Streptococcus pneumoniae; assay: Antibacterial activity against Streptococcus pneumoniae U2A1053 harboring parC Ser79Phe mutant gene by agar dilution method; format: functional
[26] = tested on: Streptococcus pneumoniae; assay: Antibacterial activity against Streptococcus pneumoniae U2A1056 harboring gyrA Ser81Tyr parC Asp83His mutant gene by agar dilution method; format: functional
[27] = tested on: Streptococcus pneumoniae; assay: Antibacterial activity against Streptococcus pneumoniae R6 by agar dilution method; format: functional
[28] = tested on: Streptococcus pneumoniae; assay: Antibacterial activity against Streptococcus pneumoniae U2A1681 harboring parC Ser79Tyr Asp83Ala mutant gene by agar dilution method; format: functional
[29] = tested on: Streptococcus pneumoniae; assay: Antibacterial activity against Streptococcus pneumoniae U2A1266 harboring gyrA Ser81Cys mutant gene by agar dilution method; format: functional
[30] = tested on: Streptococcus pneumoniae; assay: Antibacterial activity against Streptococcus pneumoniae R6 Tr10 harboring gyrA Ser81Tyr parC Ser79Tyr mutant gene by agar dilution method; format: functional
[31] = tested on: Streptococcus pneumoniae; assay: Antibacterial activity against Streptococcus pneumoniae U2A1050 harboring gyrA Ser81Phe mutant gene by agar dilution method; format: functional
[32] = tested on: Streptococcus pneumoniae; assay: Antibacterial activity against Streptococcus pneumoniae U2A1413 harboring parC Ser79Tyr mutant gene by agar dilution method; format: functional
[33] = tested on: Streptococcus pneumoniae; assay: Antibacterial activity against Streptococcus pneumoniae R6 Tr1 harboring parC Ser79Tyr mutant gene by agar dilution method; format: functional
[34] = tested on: Streptococcus pneumoniae; assay: Antibacterial activity against Streptococcus pneumoniae U2A1686 harboring gyrA Glu85Lys mutant gene by agar dilution method; format: functional
[35] = tested on: Streptococcus pneumoniae; assay: Antibacterial activity against Streptococcus pneumoniae U2A1414 harboring gyrA Glu85Lys parC Ser79Phe mutant gene by agar dilution method; format: functional

Structure (SMILES)	diameter of the inhibition zone (DIZ) [1] [mm]	diameter of the inhibition zone (DIZ) [2] [mm]	diameter of the inhibition zone (DIZ) [3] [mm]	diameter of the inhibition zone (DIZ) [4] [mm]	diameter of the inhibition zone (DIZ) [5] [mm]	diameter of the inhibition zone (DIZ) [6] [mm]	diameter of the inhibition zone (DIZ) [7] [mm]	diameter of the inhibition zone (DIZ) [8] [mm]	diameter of the inhibition zone (DIZ) [9] [mm]	diameter of the inhibition zone (DIZ) [10] [mm]	diameter of the inhibition zone (DIZ) [11] [mm]	diameter of the inhibition zone (DIZ) [12] [mm]	diameter of the inhibition zone (DIZ) [13] [mm]	diameter of the inhibition zone (DIZ) [14] [mm]	diameter of the inhibition zone (DIZ) [15] [mm]	diameter of the inhibition zone (DIZ) [16] [mm]	diameter of the inhibition zone (DIZ) [17] [mm]	diameter of the inhibition zone (DIZ) [18] [mm]	diameter of the inhibition zone (DIZ) [19] [mm]	other results
CCn1cc(C(=O)O)c(=O)c2ccc(C)nc21 [NALIDIXIC ACID]	8	6	6	6	6	6	6	13	6	6	6	6	6	6	14	6	6	6	6	
C[C@@H]1CN(c2c(F)c(N)c3c(=O)c(C(=O)O)cn(C4CC4)c3c2F)C[C@H](C)N1 [SPARFLOXACIN]	22	12	24	25	20	22	23	25	19	23	28	11	24	6	11	24	6	23	26	MIC [20]: 0.25 µg/mL (≈ 0.637 µM); MIC [21]: 1 µg/mL (≈ 2.55 µM); MIC [22]: 2 µg/mL (≈ 5.1 µM); MIC [23]: 0.25 µg/mL (≈ 0.637 µM); MIC [24]: 16 µg/mL (≈ 40.8 µM); MIC [25]: 0.25 µg/mL (≈ 0.637 µM); MIC [26]: 8 µg/mL (≈ 20.4 µM); MIC [27]: 0.25 µg/mL (≈ 0.637 µM); MIC [28]: 32 µg/mL (≈ 81.5 µM); MIC [29]: 1 µg/mL (≈ 2.55 µM); MIC [30]: 16 µg/mL (≈ 40.8 µM); MIC [31]: 2 µg/mL (≈ 5.1 µM); MIC [32]: 0.25 µg/mL (≈ 0.637 µM); MIC [33]: 1 µg/mL (≈ 2.55 µM); MIC [34]: 2 µg/mL (≈ 5.1 µM); MIC [35]: > 32 µg/mL
